Laboratory results reported in US9050341B2, “Methods of treating drug resistant and other tumors by administering 6,7-dialkoxy quinazoline derivatives” (NATCO PHARMA LIMITED, priority 2009, dated 2015).

Key:
Assay in all cases: KinomeScan kinase profiling
Type in all cases: binding
CSNK1D = target: T1, CSNK1D (Homo sapiens, UniProt P48730)
T1 construct: host or cells: T7 phage in E. coli (BL21-derived)
Summary of the method: (§1)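 Kinases were expressed as T7 phage fusions in a BL21-derived E. coli host and the cleared lysates were used. Ligand beads were blocked with biotin and buffer (1% BSA, 0.05% Tween 20, 1 mM DTT). Compounds came from 40× DMSO stocks, and phage in the eluates was titred by qPCR.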

ZAK = target: T2, ZAK (Homo sapiens, UniProt Q9NYL2)
T2 construct: host or cells: E. coli host derived from the BL21 strain, infected with T7 phage
Summary of the method: as §1

TNNI3K = target: T3, TNNI3K (Homo sapiens, UniProt Q59H18)
T3 construct: purchased Ambit Biosciences Corp (KinomeScan); host or cells: E. coli host derived from the BL21 strain (T7 phage lysate)
Summary of the method: as §1

[1] = target: T4, JAK3 (JH1domain-catalytic) (Homo sapiens, UniProt P52333)
T4 construct: JAK3 (JH1domain-catalytic); host or cells: T7 phage in E. coli host derived from BL21
Summary of the method: as §1

FLT3 (K663Q) = target: T5, FLT3 (K663Q) (Homo sapiens, UniProt P36888, K663Q)
T5 construct: host or cells: E. coli host derived from BL21, infected with T7 phage
Summary of the method: as §1

NEK1 = target: T6, NEK1 (Homo sapiens, UniProt Q96PY6)
T6 construct: host or cells: T7 phage in E. coli host derived from BL21
Summary of the method: as §1

KIT (V559D, V654A) = target: T7, KIT (V559D, V654A) (Homo sapiens, UniProt P10721, V559D/V654A)
T7 construct: host or cells: T7 phage in E. coli host derived from BL21
Summary of the method: as §1

PRKX = target: T8, PRKX (Homo sapiens, UniProt P51817)
T8 construct: host or cells: E. coli host derived from BL21, T7 phage lysate
Summary of the method: as §1

YSK1 = target: T9, YSK1 (Homo sapiens, UniProt O00506)
T9 construct: host or cells: E. coli host derived from the BL21 strain, infected with T7 phage
Summary of the method: as §1

CAMKK2 = target: T10, CAMKK2 (Homo sapiens, UniProt Q96RR4)
T10 construct: host or cells: T7 phage in E. coli (BL21-derived)
Summary of the method: as §1

CDK7 = target: T11, CDK7 (Homo sapiens, UniProt P50613)
T11 construct: host or cells: T7 phage in E. coli (BL21-derived)
Summary of the method: as §1

LIMK2 = target: T12, LIMK2 (Homo sapiens, UniProt P53671)
T12 construct: host or cells: T7 phage in E. coli host derived from BL21
Summary of the method: as §1

FGFR3 = target: T13, FGFR3 (Homo sapiens, UniProt P22607)
T13 construct: host or cells: E. coli host derived from BL21, infected with T7 phage
Summary of the method: as §1

ABL1 (Q252H) = target: T14, ABL1 (Q252H) (Homo sapiens, UniProt P00519, Q252H)
T14 construct: host or cells: E. coli host derived from BL21 (T7 phage lysate)
Summary of the method: as §1

CDKL2 = target: T15, CDKL2 (Homo sapiens, UniProt Q92772)
T15 construct: host or cells: T7 phage in E. coli (BL21-derived)
Summary of the method: as §1

ROCK2 = target: T16, ROCK2 (Homo sapiens, UniProt O75116)
T16 construct: host or cells: E. coli host derived from BL21, T7 phage lysate
Summary of the method: as §1

PDGFRB = target: T17, PDGFRB (Homo sapiens, UniProt P09619)
T17 construct: host or cells: E. coli host derived from the BL21 strain, infected with T7 phage
Summary of the method: as §1

FLT1 = target: T18, FLT1 (Homo sapiens, UniProt P17948)
T18 construct: host or cells: E. coli host derived from BL21, infected with T7 phage
Summary of the method: as §1

BRK = target: T19, BRK (Homo sapiens, UniProt Q13882)
T19 construct: purchased Ambit Biosciences Corp (KinomeScan); host or cells: E. coli host derived from the BL21 strain, T7 phage
Summary of the method: as §1

EPHA4 = target: T20, EPHA4 (Homo sapiens, UniProt P54764)
T20 construct: host or cells: E. coli host derived from BL21, T7 phage lysate
Summary of the method: as §1

FLT3 (D835H) = target: T21, FLT3 (D835H) (Homo sapiens, UniProt P36888, D835H)
T21 construct: host or cells: E. coli host derived from BL21, infected with T7 phage
Summary of the method: as §1

MAP4K4 = target: T22, MAP4K4 (Homo sapiens, UniProt O95819)
T22 construct: host or cells: E. coli derived from BL21, infected with T7 phage
Summary of the method: as §1

T1 sequence (P48730 whole entry): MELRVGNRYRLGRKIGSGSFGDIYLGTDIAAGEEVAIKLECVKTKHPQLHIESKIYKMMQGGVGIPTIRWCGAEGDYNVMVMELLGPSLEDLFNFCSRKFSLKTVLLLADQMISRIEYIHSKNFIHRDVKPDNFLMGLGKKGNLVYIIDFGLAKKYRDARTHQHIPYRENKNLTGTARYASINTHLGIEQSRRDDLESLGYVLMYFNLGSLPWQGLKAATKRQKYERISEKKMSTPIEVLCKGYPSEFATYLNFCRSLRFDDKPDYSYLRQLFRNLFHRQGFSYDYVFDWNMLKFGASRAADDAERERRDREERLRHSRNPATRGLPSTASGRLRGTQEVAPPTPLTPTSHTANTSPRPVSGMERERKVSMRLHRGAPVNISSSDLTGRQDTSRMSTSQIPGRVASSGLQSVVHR
T19 sequence (Q13882 whole entry): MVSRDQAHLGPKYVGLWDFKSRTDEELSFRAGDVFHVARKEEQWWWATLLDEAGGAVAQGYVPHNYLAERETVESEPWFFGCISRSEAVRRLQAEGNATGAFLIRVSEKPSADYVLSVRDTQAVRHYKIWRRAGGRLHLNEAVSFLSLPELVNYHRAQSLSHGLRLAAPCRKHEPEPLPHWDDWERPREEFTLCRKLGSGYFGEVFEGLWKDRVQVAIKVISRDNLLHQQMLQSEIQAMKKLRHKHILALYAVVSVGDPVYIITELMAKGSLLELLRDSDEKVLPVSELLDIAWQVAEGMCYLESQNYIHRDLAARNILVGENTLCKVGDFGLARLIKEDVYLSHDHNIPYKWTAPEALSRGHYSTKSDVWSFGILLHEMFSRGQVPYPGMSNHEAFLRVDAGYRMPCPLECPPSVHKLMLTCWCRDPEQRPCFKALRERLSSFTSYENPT
T20 sequence (P54764 20-986): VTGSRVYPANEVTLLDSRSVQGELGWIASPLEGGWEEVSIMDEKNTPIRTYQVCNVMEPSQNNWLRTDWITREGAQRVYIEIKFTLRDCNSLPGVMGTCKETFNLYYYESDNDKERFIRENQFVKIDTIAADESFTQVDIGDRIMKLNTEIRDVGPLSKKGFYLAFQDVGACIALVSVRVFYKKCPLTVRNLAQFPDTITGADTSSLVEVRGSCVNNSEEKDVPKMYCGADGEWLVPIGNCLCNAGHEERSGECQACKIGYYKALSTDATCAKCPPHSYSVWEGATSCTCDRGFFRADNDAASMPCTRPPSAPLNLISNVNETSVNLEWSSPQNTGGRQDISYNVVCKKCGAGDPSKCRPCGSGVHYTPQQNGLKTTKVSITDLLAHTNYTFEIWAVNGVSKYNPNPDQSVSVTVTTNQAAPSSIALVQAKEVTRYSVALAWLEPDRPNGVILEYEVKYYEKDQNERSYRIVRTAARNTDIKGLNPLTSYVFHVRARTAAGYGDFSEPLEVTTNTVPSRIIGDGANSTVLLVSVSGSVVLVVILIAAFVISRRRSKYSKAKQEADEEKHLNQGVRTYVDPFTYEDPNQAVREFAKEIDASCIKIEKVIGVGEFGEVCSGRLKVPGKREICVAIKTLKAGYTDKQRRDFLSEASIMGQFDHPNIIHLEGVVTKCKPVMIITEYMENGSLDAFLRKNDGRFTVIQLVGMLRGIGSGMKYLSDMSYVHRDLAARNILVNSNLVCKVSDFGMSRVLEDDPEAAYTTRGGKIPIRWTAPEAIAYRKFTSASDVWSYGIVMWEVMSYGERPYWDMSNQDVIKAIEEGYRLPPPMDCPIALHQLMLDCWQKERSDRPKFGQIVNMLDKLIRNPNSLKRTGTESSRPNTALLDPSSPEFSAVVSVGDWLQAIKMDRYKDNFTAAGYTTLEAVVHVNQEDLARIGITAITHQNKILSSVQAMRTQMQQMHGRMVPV
T17 sequence (P09619 33-1106): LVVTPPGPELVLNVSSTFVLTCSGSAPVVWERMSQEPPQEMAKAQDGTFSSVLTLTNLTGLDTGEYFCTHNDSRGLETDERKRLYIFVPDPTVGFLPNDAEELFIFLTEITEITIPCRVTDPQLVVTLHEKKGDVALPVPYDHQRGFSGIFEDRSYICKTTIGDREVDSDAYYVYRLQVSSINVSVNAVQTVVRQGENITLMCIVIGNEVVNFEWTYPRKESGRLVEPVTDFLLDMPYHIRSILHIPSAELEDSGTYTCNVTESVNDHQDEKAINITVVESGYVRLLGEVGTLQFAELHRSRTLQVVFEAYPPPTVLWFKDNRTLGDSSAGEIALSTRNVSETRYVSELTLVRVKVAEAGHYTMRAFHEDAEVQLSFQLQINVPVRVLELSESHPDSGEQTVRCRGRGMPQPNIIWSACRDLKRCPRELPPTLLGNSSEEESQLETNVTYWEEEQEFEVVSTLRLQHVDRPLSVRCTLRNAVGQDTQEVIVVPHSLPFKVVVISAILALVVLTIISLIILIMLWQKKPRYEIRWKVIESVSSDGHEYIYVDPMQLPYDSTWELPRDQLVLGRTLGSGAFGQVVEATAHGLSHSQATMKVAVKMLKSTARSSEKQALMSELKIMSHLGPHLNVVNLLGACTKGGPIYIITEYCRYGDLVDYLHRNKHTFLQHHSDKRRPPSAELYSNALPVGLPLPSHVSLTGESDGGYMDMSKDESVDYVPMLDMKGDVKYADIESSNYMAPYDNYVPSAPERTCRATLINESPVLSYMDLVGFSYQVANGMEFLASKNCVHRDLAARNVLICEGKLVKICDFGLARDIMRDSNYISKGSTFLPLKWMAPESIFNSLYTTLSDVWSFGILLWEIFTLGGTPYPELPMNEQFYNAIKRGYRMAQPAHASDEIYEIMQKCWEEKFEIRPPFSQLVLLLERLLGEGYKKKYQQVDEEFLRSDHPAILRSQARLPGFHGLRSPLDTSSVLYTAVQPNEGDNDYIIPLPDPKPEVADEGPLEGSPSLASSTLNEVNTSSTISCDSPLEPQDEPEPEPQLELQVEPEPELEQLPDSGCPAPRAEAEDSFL
T2 sequence (Q9NYL2 whole entry): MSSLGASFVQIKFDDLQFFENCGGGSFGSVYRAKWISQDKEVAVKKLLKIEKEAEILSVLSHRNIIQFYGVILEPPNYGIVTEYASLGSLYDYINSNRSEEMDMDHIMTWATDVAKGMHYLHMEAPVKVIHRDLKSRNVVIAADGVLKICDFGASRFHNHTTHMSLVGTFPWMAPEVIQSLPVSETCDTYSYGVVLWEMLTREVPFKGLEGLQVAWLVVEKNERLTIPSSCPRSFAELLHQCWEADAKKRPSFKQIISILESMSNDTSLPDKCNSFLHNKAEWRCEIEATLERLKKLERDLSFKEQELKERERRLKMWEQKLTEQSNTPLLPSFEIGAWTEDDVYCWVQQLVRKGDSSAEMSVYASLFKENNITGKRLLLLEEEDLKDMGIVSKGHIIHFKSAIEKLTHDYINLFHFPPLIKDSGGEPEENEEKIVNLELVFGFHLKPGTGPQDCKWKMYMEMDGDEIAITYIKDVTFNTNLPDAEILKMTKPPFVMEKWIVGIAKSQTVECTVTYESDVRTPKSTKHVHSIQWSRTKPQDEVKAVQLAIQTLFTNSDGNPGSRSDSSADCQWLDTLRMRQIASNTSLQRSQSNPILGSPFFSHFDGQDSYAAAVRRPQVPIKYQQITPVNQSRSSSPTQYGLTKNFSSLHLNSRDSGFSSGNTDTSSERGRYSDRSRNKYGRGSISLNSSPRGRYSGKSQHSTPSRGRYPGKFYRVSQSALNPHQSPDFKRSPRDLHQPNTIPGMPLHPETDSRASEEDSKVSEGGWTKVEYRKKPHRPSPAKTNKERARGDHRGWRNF
T18 sequence (P17948 27-1338): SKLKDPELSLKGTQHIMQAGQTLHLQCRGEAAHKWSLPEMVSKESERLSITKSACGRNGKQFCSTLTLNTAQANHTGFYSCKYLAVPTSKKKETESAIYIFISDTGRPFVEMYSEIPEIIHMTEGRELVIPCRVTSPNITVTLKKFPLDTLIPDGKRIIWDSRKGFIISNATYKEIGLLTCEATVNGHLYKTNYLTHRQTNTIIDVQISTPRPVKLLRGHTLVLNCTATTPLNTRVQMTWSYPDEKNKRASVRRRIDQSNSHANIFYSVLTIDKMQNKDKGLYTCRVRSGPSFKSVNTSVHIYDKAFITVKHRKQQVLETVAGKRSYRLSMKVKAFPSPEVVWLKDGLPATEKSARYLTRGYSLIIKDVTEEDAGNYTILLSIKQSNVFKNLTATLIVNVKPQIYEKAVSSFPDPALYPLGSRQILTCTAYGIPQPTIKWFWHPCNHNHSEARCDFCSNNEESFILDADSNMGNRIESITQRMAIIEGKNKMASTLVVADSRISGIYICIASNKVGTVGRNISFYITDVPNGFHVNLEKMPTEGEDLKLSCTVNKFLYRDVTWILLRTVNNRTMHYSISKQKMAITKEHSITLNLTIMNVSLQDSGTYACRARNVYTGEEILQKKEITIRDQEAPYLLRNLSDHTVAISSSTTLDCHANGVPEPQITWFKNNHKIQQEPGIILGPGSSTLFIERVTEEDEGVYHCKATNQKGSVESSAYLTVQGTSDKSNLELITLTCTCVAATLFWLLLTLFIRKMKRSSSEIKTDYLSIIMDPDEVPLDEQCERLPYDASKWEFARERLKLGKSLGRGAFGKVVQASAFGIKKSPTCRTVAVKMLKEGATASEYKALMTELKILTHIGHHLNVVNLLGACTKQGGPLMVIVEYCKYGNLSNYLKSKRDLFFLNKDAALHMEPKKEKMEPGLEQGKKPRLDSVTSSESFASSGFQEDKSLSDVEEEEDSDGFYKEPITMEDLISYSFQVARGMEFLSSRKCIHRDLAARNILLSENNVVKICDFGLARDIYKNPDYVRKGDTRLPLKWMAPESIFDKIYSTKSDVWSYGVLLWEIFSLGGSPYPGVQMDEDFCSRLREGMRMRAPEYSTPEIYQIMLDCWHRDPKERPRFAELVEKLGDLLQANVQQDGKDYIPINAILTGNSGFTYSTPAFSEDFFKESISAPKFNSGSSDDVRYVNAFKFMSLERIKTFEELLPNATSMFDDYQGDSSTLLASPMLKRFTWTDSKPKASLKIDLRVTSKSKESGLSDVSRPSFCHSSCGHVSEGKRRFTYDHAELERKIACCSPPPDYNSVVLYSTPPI

SMILES: C#Cc1cccc(Nc2ncnc3cc(OC)c(OCCCN4CCOCC4)cc23)c1 [NRC-2694, N-(3-ethylnylphenyl)-7-methoxy-6-[3-(4-morpholinyl)propoxy]-4-quinazolinamine]
- % Ctrl @ 10000 nM (CSNK1D): 25 % Ctrl
- % Ctrl @ 10000 nM (ZAK): 74 % Ctrl
- % Ctrl @ 10000 nM (TNNI3K): 7.6 % Ctrl
- % Ctrl @ 10000 nM [1]: 72 % Ctrl
- % Ctrl @ 10000 nM (FLT3 (K663Q)): 56 % Ctrl
- % Ctrl @ 10000 nM (NEK1): 66 % Ctrl
- % Ctrl @ 10000 nM (KIT (V559D, V654A)): 47 % Ctrl
- % Ctrl @ 10000 nM (PRKX): 100 % Ctrl
- % Ctrl @ 10000 nM (YSK1): 69 % Ctrl
- % Ctrl @ 10000 nM (CAMKK2): 60 % Ctrl
- % Ctrl @ 10000 nM (CDK7): 0.55 % Ctrl
- % Ctrl @ 10000 nM (LIMK2): 100 % Ctrl
- % Ctrl @ 10000 nM (FGFR3): 100 % Ctrl
- % Ctrl @ 10000 nM (ABL1 (Q252H)): 15 % Ctrl
- % Ctrl @ 10000 nM (CDKL2): 67 % Ctrl
- % Ctrl @ 10000 nM (ROCK2): 38 % Ctrl
- % Ctrl @ 10000 nM (PDGFRB): 10 % Ctrl
- % Ctrl @ 10000 nM (FLT1): 64 % Ctrl
- % Ctrl @ 10000 nM (BRK): 46 % Ctrl
- % Ctrl @ 10000 nM (EPHA4): 64 % Ctrl
- % Ctrl @ 10000 nM (FLT3 (D835H)): 8.1 % Ctrl
- % Ctrl @ 10000 nM (MAP4K4): 20 % Ctrl
